T1: rat CHT1 (high-affinity choline transporter) (Rattus norvegicus, UniProt Q9JMD7)
T1 construct: expressed in transfected cells; host or cells: Xenopus oocytes microinjected with CHT1 cRNA (clone in pSPUTK vector)
T1 sequence (Q9JMD7 1-580): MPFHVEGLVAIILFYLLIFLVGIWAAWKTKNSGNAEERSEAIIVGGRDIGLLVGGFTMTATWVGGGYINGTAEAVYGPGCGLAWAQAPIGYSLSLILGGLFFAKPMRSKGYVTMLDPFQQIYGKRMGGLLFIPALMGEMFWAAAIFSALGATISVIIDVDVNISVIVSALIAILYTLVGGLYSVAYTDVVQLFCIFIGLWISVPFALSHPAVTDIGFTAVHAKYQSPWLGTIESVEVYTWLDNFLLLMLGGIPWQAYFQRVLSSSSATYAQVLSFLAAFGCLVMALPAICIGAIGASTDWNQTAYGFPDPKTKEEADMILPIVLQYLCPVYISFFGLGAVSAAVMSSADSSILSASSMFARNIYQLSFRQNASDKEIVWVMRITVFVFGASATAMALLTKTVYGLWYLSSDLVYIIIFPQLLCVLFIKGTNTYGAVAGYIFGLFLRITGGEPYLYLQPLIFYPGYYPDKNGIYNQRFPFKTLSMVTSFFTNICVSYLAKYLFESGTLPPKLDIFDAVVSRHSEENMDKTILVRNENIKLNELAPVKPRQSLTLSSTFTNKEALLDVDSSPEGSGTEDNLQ

T2: nematode high-affinity choline transporter cho-1 (C48D1.3) (Caenorhabditis elegans, UniProt O02228)
T2 construct: injecting each cRNA prepared from candidate full-length cDNAs; expressed in transfected cells; host or cells: Xenopus oocytes (stage V to VI) microinjected with capped cRNA transcribed from modified pSPUTK vector
T2 sequence (O02228 1-576): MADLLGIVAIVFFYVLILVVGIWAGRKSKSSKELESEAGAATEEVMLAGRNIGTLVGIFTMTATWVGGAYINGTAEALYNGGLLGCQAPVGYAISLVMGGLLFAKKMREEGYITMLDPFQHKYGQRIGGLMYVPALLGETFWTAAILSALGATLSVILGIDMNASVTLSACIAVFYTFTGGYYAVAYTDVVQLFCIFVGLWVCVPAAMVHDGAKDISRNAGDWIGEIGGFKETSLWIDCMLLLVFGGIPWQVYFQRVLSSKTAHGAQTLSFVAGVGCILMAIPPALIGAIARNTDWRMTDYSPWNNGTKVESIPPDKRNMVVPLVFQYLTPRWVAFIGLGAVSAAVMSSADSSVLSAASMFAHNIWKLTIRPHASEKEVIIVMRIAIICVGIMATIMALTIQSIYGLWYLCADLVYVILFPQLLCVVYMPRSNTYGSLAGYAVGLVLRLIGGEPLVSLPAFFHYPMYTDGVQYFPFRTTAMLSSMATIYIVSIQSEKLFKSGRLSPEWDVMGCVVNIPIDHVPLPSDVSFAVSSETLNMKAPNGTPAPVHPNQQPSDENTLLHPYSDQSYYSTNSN

B1: rat CHT1 (high-affinity choline transporter) (Rattus norvegicus) (protein)
chain: MPFHVEGLVAIILFYLLIFLVGIWAAWKTKNSGNAEERSEAIIVGGRDIGLLVGGFTMTATWVGGGYINGTAEAVYGPGCGLAWAQAPIGYSLSLILGGLFFAKPMRSKGYVTMLDPFQQIYGKRMGGLLFIPALMGEMFWAAAIFSALGATISVIIDVDVNISVIVSALIAILYTLVGGLYSVAYTDVVQLFCIFIGLWISVPFALSHPAVTDIGFTAVHAKYQSPWLGTIESVEVYTWLDNFLLLMLGGIPWQAYFQRVLSSSSATYAQVLSFLAAFGCLVMALPAICIGAIGASTDWNQTAYGFPDPKTKEEADMILPIVLQYLCPVYISFFGLGAVSAAVMSSADSSILSASSMFARNIYQLSFRQNASDKEIVWVMRITVFVFGASATAMALLTKTVYGLWYLSSDLVYIIIFPQLLCVLFIKGTNTYGAVAGYIFGLFLRITGGEPYLYLQPLIFYPGYYPDKNGIYNQRFPFKTLSMVTSFFTNICVSYLAKYLFESGTLPPKLDIFDAVVSRHSEENMDKTILVRNENIKLNELAPVKPRQSLTLSSTFTNKEALLDVDSSPEGSGTEDNLQ

Legend:
[1] = test system: high-affinity uptake of choline in brain synaptosomes; details: cited from earlier work
[2] = test system: low-affinity uptake of choline, distributed in every cells; details: read-out: Ki of HC3 for low-affinity uptake of choline, higher HC3 concentration; cited from earlier work
[3] = target: T1, rat CHT1 (high-affinity choline transporter); assay: [3H] choline uptake of Xenopus oocytes injected with CHT1 cRNA; format: cell-based
Protocol: (§1) In the presence of cap analog, cRNA was synthesized in vitro with SP6 or T7 RNA polymerase. 20 to 30 ng capped RNA was microinjected into oocytes (stage V to VI) of Xenopus. The uptake was measured in basically same manner as described previously (Nature 360, 467-471, 1992). […] The oocytes completing uptake were solubilized with 10% SDS, and the amount of [^3H] was measured by a liquid scintillation counter.

[4] = target: T2, nematode high-affinity choline transporter cho-1 (C48D1.3); assay: [3H] choline uptake of Xenopus oocytes injected with nematode cho-1 (C48D1.3) cRNA; format: cell-based, C. elegans
Protocol: as §1, with “Xenopus.” for “Xenopus. The uptake was measured in basically same manner as described previously (Nature 360, 467-471, 1992).”

[5] = test system: endogenous choline uptake of control oocytes; assay: Choline uptake of control Xenopus oocytes injected with water; format: cell-based; details: 10 μM HC3, oocytes injected with water
Protocol: as §1

[6] = substrate: C[N+](C)(C)CCO; assay: cells, lysate or membranes; details: other: Michaelis-Menten fit, water-injected uptake subtracted, n=3; pH 7.4

Row | Molecule | inhibition of high-affinity uptake of choline ([1]; 1 μM HC3, brain synaptosomes of mammals) | Ki ([1]; read-out: Ki of HC3 for high-affinity uptake of choline, brain synaptosomes of mammals) [nM] | Ki [2] [nM] | Ki [3] [nM] | inhibition of choline uptake of CHT1 ([3]; 0.1 μM HC3) | inhibition of Na+-dependent choline uptake of CHT1 ([3]; CHT1 expressed in Xenopus oocytes, concentration not given) | Ki [4] [nM] | inhibition of cho-1 promoted choline uptake ([4]; 1 μM HC3, Xenopus oocytes) | inhibition of choline uptake in control [5] | Km [6] [µM]
1 | C[N+]1(C)CCOC(O)(c2ccc(-c3ccc(C4(O)C[N+](C)(C)CCO4)cc3)cc2)C1 (stereo not shown) [HC3, hemicholinium-3] | completely inhibited | 10 to 100 | 50000 | 2 to 3 | completely inhibited | completely inhibited | 50 | inhibited | only slight inhibition | –
2 | B1 | – | – | – | – | – | – | – | – | – | 2.2 ± 0.2
